# Test results from patent US8686150B2 (Sanofi, priority 2011, dated 2014).
# Biological target: T1, human full-length recombinant PKC βII (Homo sapiens, UniProt P05771)
# T1 construct: Active human full-length recombinant PKC βII; purchased Invitrogen GmbH, Darmstadt, Germany
# Experiment: Determination of PKC βII inhibition (Caliper mobility-shift kinase assay, Fluorescein-RFARKGSLRQKNV peptide substrate)
# Format: biochemical
# Conditions: example compounds at a final concentration of 1.14 μM (±0.15 μM)
# In short: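 Full-length PKC βII (30 ng/ml in pre-dilution) with PS/DAG/Ca2+ activators, pH 7.4; fluorescein peptide and ATP at 3 μM and 120 μM before mixing. Reaction ran 60 min at 32 °C, was EDTA-stopped, and was read by mobility shift. % inhibition came from product/(substrate+product) peak heights, tested at 1.14 μM final.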
# T1 sequence (P05771 1-673 isoform P05771-2): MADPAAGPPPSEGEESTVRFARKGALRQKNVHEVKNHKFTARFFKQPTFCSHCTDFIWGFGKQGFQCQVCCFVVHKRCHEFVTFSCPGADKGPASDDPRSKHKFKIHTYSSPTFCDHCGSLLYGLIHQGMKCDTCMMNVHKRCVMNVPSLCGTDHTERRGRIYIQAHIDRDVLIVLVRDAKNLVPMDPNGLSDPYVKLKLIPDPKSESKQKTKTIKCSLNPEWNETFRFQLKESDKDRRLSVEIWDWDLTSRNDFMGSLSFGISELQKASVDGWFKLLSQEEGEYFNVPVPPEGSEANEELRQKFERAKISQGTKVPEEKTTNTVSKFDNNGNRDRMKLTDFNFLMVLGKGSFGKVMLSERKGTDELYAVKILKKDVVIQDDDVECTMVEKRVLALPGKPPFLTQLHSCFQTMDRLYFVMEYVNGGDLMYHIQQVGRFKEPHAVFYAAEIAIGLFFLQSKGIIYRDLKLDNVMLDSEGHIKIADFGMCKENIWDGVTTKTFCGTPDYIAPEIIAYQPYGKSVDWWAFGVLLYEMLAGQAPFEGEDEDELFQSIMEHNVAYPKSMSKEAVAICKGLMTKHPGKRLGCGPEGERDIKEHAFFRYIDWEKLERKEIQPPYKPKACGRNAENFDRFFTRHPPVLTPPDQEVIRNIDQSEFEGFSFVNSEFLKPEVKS
inhibition at 1.14 µM [%],% Inhibition [%],Compound
81,,"Cc1n[nH]c2nc(-c3ccc(O)cc3)cc(C(=O)NCCNC(C)C)c12 [Example 50, 6-(4-Hydroxy-phenyl)-3-methyl-1H-pyrazolo[3,4-b]pyridine-4-carboxylic acid (2-isopropylamino-ethyl)-amide]"
85,,"COc1cccc(C(CN)NC(=O)c2cc(-c3ccc(O)cc3)nc3[nH]nc(C)c23)c1 (stereo not drawn) [Example 51, 6-(4-Hydroxy-phenyl)-3-methyl-1H-pyrazolo[3,4-b]pyridine-4-carboxylic acid [2-amino-1-(3-methoxy-phenyl)-ethyl]-amide]"
86,,"Cc1ccc(C(CN)NC(=O)c2cc(-c3ccc(O)cc3)nc3[nH]nc(C)c23)cc1 (stereo not drawn) [Example 52, 6-(4-Hydroxy-phenyl)-3-methyl-1H-pyrazolo[3,4-b]pyridine-4-carboxylic acid (2-amino-1-p-tolyl-ethyl)-amide]"
92,,"Cc1n[nH]c2nc(-c3ccc(O)cc3)cc(C(=O)N3CCNCC3)c12 [Example 53, [6-(4-Hydroxy-phenyl)-3-methyl-1H-pyrazolo[3,4-b]pyridin-4-yl]-piperazin-1-yl-methanone]"
41,,"Cc1n[nH]c2nc(-c3ccc(O)cc3)cc(C(=O)N3CCN(C(N)=O)CC3)c12 [Example 54, 4-[6-(4-Hydroxy-phenyl)-3-methyl-1H-pyrazolo[3,4-b]pyridine-4-carbonyl]-piperazine-1-carboxylic acid amide]"
27,,"O=C(c1cc(-c2ccc(O)cc2)nc2[nH]nc(C3CC3)c12)N1CCNCC1 [Example 55, [3-Cyclopropyl-6-(4-hydroxy-phenyl)-1H-pyrazolo[3,4-b]pyridin-4-yl]-piperazin-1-yl-methanone]"
96,,"Cc1n[nH]c2nc(-c3ccc(O)cc3F)cc(C(=O)N3CCNCC3(C)C)c12 [Example 56, (2,2-Dimethyl-piperazin-1-yl)-[6-(2-fluoro-4-hydroxy-phenyl)-3-methyl-1H-pyrazolo[3,4-b]pyridin-4-yl]-methanone]"
99,,"Cc1n[nH]c2nc(-c3ccc(O)cc3F)cc(C(=O)N3CCNC[C@H]3c3ccccc3)c12 [Example 57, [6-(2-Fluoro-4-hydroxy-phenyl)-3-methyl-1H-pyrazolo[3,4-b]pyridin-4-yl]-((R)-2-phenyl-piperazin-1-yl)-methanone]"
93,,"CNC1CCN(C(=O)c2cc(-c3ccc(O)cc3F)nc3[nH]nc(C)c23)CC1 [Example 58, [6-(2-Fluoro-4-hydroxy-phenyl)-3-methyl-1H-pyrazolo[3,4-b]pyridin-4-yl]-(4-methylamino-piperidin-1-yl)-methanone]"
80,,"Cc1n[nH]c2nc(-c3ccc(O)cc3F)cc(C(=O)N3CCC[C@@H](CN)C3)c12 [Example 59, ((S)-3-Aminomethyl-piperidin-1-yl)-[6-(2-fluoro-4-hydroxy-phenyl)-3-methyl-1H-pyrazolo[3,4-b]pyridin-4-yl]-methanone]"
98,,"Cc1n[nH]c2nc(-c3ccc(O)cc3F)cc(C(=O)N3CCNCC3C(F)(F)F)c12 (stereo not drawn) [Example 60, [6-(2-Fluoro-4-hydroxy-phenyl)-3-methyl-1H-pyrazolo[3,4-b]pyridin-4-yl]-(2-trifluoromethyl-piperazin-1-yl)-methanone]"
92,,"Cc1n[nH]c2nc(-c3ccc(O)cc3F)cc(C(=O)NCC3(N)CCCCCC3)c12 [Example 61, 6-(2-Fluoro-4-hydroxy-phenyl)-3-methyl-1H-pyrazolo[3,4-b]pyridine-4-carboxylic acid (1-amino-cycloheptylmethyl)-amide]"
100,,"CCC1(NC(=O)c2cc(-c3ccc(O)cc3F)nc3[nH]nc(C)c23)CCCNC1 (stereo not drawn) [Example 62, 6-(2-Fluoro-4-hydroxy-phenyl)-3-methyl-1H-pyrazolo[3,4-b]pyridine-4-carboxylic acid (3-ethyl-piperidin-3-yl)-amide]"
100,,"Cc1n[nH]c2nc(-c3ccc(O)cc3F)cc(C(=O)N3CC(C)(C)NCC3(C)C)c12 [Example 63, [6-(2-Fluoro-4-hydroxy-phenyl)-3-methyl-1H-pyrazolo[3,4-b]pyridin-4-yl]-(2,2,5,5-tetramethyl-piperazin-1-yl)-methanone]"
98,,"Cc1n[nH]c2nc(-c3ccc(O)cc3F)cc(C(=O)N3CCNCC34CC4)c12 [Example 64, (4,7-Diaza-spiro[2.5]oct-4-yl)-[6-(2-fluoro-4-hydroxy-phenyl)-3-methyl-1H-pyrazolo[3,4-b]pyridin-4-yl]-methanone]"
94,,"CCC(CCN)NC(=O)c1cc(-c2ccc(O)cc2F)nc2[nH]nc(C)c12 (stereo not drawn) [Example 65, 6-(2-Fluoro-4-hydroxy-phenyl)-3-methyl-1H-pyrazolo[3,4-b]pyridine-4-carboxylic acid (3-amino-1-ethyl-propyl)-amide]"
93,,"Cc1n[nH]c2nc(-c3ccc(O)cc3F)cc(C(=O)NC(C)(C)CCN)c12 [Example 66, 6-(2-Fluoro-4-hydroxy-phenyl)-3-methyl-1H-pyrazolo[3,4-b]pyridine-4-carboxylic acid (3-amino-1,1-dimethyl-propyl)-amide]"

inhibition at 1.14 µM [%],% Inhibition [%],Compound
86,,"Cc1n[nH]c2nc(-c3ccc(O)cc3F)cc(C(=O)NCCC(C)(C)N)c12 [Example 67, 6-(2-Fluoro-4-hydroxy-phenyl)-3-methyl-1H-pyrazolo[3,4-b]pyridine-4-carboxylic acid (3-amino-3-methyl-butyl)-amide]"
88,,"CCC[C@H]1CN(C(=O)c2cc(-c3ccc(O)cc3)nc3[nH]nc(C)c23)CCN1 [Example 68, [6-(4-Hydroxy-phenyl)-3-methyl-1H-pyrazolo[3,4-b]pyridin-4-yl]-((S)-3-propyl-piperazin-1-yl)-methanone]"
100,,"COc1ccc(C2CNCCN2C(=O)c2cc(-c3ccc(O)cc3)nc3[nH]nc(C)c23)cc1 (stereo not drawn) [Example 69, [6-(4-Hydroxy-phenyl)-3-methyl-1H-pyrazolo[3,4-b]pyridin-4-yl]-[2-(4-methoxy-phenyl)-piperazin-1-yl]-methanone]"
92,,"Cc1n[nH]c2nc(-c3ccc(O)cc3)cc(C(=O)N3CC(C)NCC3c3ccccc3)c12 (stereo not drawn) [Example 70, [6-(4-Hydroxy-phenyl)-3-methyl-1H-pyrazolo[3,4-b]pyridin-4-yl]-(5-methyl-2-phenyl-piperazin-1-yl)-methanone]"
95,,"Cc1n[nH]c2nc(-c3ccc(O)cc3)cc(C(=O)N3CC4CCC3CN4)c12 (stereo not drawn) [Example 71, 2,5-Diaza-bicyclo[2.2.2]oct-2-yl-[6-(4-hydroxy-phenyl)-3-methyl-1H-pyrazolo[3,4-b]pyridin-4-yl]-methanone]"
94,,"COc1cccc(C2CNCCN2C(=O)c2cc(-c3ccc(O)cc3)nc3[nH]nc(C)c23)c1 (stereo not drawn) [Example 72, [6-(4-Hydroxy-phenyl)-3-methyl-1H-pyrazolo[3,4-b]pyridin-4-yl]-[2-(3-methoxy-phenyl)-piperazin-1-yl]-methanone]"
47,,"Cc1n[nH]c2nc(-c3ccc(O)cc3)cc(C(=O)NC3CCNCC3)c12 [Example 74, 6-(4-Hydroxy-phenyl)-3-methyl-1H-pyrazolo[3,4-b]pyridine-4-carboxylic acid piperidin-4-ylamide]"
89,,"Cc1n[nH]c2nc(-c3ccc(O)cc3)cc(C(=O)N3CCCNCC3)c12 [Example 75, [1,4]Diazepan-1-yl-[6-(4-hydroxy-phenyl)-3-methyl-1H-pyrazolo[3,4-b]pyridin-4-yl]-methanone]"
88,,"Cc1n[nH]c2nc(-c3ccc(O)cc3)cc(C(=O)N3CCCC(N)C3)c12 (stereo not drawn) [Example 76, (3-Amino-piperidin-1-yl)-[6-(4-hydroxy-phenyl)-3-methyl-1H-pyrazolo[3,4-b]pyridin-4-yl]-methanone]"
60,,"Cc1n[nH]c2nc(-c3ccc(O)cc3)cc(C(=O)N[C@H]3CC[C@H](N)CC3)c12 [Example 77, 6-(4-Hydroxy-phenyl)-3-methyl-1H-pyrazolo[3,4-b]pyridine-4-carboxylic acid (trans-4-amino-cyclohexyl)-amide]"
82,,"COc1ccccc1C1CNCCN1C(=O)c1cc(-c2ccc(O)cc2)nc2[nH]nc(C)c12 (stereo not drawn) [Example 79, [6-(4-Hydroxy-phenyl)-3-methyl-1H-pyrazolo[3,4-b]pyridin-4-yl]-[2-(2-methoxy-phenyl)-piperazin-1-yl]-methanone]"
91,,"Cc1n[nH]c2nc(-c3ccc(O)cc3)cc(C(=O)N3CCNCC34CC4)c12 [Example 80, (4,7-Diaza-spiro[2.5]oct-4-yl)-[6-(4-hydroxy-phenyl)-3-methyl-1H-pyrazolo[3,4-b]pyridin-4-yl]-methanone]"
,76,"Cc1n[nH]c2nc(-c3ccc(O)cc3)cc(C(=O)N3C[C@H](C)NC[C@H]3C)c12 [Example 81, ((2R,5S)-2,5-Dimethyl-piperazin-1-yl)-[6-(4-hydroxy-phenyl)-3-methyl-1H-pyrazolo[3,4-b]pyridin-4-yl]-methanone]"
92,,"Cc1n[nH]c2nc(-c3ccc(O)cc3)cc(C(=O)N3CCNC[C@@H]3c3cccc(F)c3)c12 [Example 82, [(S)-2-(3-Fluoro-phenyl)-piperazin-1-yl]-[6-(4-hydroxy-phenyl)-3-methyl-1H-pyrazolo[3,4-b]pyridin-4-yl]-methanone]"
104,,"Cc1n[nH]c2nc(-c3ccc(O)cc3)cc(C(=O)N3C[C@@H](C)NC[C@H]3C)c12 [Example 83, ((2R,5R)-2,5-Dimethyl-piperazin-1-yl)-[6-(4-hydroxy-phenyl)-3-methyl-1H-pyrazolo[3,4-b]pyridin-4-yl]-methanone]"
101,,"Cc1n[nH]c2nc(-c3ccc(O)cc3)cc(C(=O)N3CCNCC3c3ccc(F)cc3)c12 (stereo not drawn) [Example 84, [2-(4-Fluoro-phenyl)-piperazin-1-yl]-[6-(4-hydroxy-phenyl)-3-methyl-1H-pyrazolo[3,4-b]pyridin-4-yl]-methanone]"
